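Tested at 5 concentrations; 48 h exposure; 96-well plates; endpoints linearly interpolated, else capped at highest concentration. The concentration for 50% growth inhibition is given as GI50. The concentration for full growth arrest is given as TGI.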
How the values were obtained:
Assay in all cases: DTP human tumour cell line panel, 48 h
[1] = tested on: NCI-H23 lung
[2] = tested on: NCI-H460 lung
[3] = tested on: NCI-H522 lung
[4] = tested on: NCI/ADR-RES ovarian
[5] = tested on: OVCAR-3 ovarian
[6] = tested on: OVCAR-4 ovarian
[7] = tested on: OVCAR-5 ovarian
[8] = tested on: OVCAR-8 ovarian
[9] = tested on: PC-3 prostate
[10] = tested on: RPMI-8226 leukemia
[11] = tested on: RXF 393 renal
[12] = tested on: SF-268 CNS
[13] = tested on: SF-295 CNS
[14] = tested on: SF-539 CNS
[15] = tested on: SK-MEL-2 melanoma
[16] = tested on: SK-MEL-28 melanoma
[17] = tested on: SK-MEL-5 melanoma
[18] = tested on: SK-OV-3 ovarian
[19] = tested on: SN12C renal
[20] = tested on: SNB-19 CNS
[21] = tested on: SNB-75 CNS
[22] = tested on: SR leukemia
[23] = tested on: SW-620 colon
[24] = tested on: T-47D breast
[25] = tested on: TK-10 renal
[26] = tested on: U251 CNS
[27] = tested on: UACC-257 melanoma
[28] = tested on: UACC-62 melanoma
[29] = tested on: UO-31 renal

Question: `CC1=C(C(=O)Nc2ccc3[nH]ncc3c2)C(c2ccc(Cl)c(Cl)c2)CC(=O)N1` (stereo not drawn) was tested. Which GI50 [1] did it give?
Answer: > 25 µM

Question: And the TGI [1]?
Answer: > 25 µM

Question: And the GI50 [2]?
Answer: > 25 µM

Question: And the TGI [2]?
Answer: > 25 µM

Question: And the GI50 [3]?
Answer: 19.5 µM

Question: What about the TGI [3] of the same compound?
Answer: > 25 µM

Question: What about the GI50 [4] of the same compound?
Answer: > 25 µM

Question: And the TGI [4]?
Answer: > 25 µM

Question: What about the GI50 [5] of the same compound?
Answer: > 25 µM

Question: And the TGI [5]?
Answer: > 25 µM

Question: And the GI50 [6]?
Answer: > 25 µM

Question: And the TGI [6]?
Answer: > 25 µM

Question: What about the GI50 [7] of the same compound?
Answer: > 25 µM

Question: What about the TGI [7] of the same compound?
Answer: > 25 µM

Question: And the GI50 [8]?
Answer: > 25 µM

Question: And the TGI [8]?
Answer: > 25 µM

Question: What about the GI50 [9] of the same compound?
Answer: > 20.4 µM

Question: What about the TGI [9] of the same compound?
Answer: > 25 µM

Question: What about the GI50 [10] of the same compound?
Answer: > 25 µM

Question: What about the TGI [10] of the same compound?
Answer: > 25 µM

Question: And the GI50 [11]?
Answer: 8.2 µM

Question: And the TGI [11]?
Answer: > 25 µM

Question: And the GI50 [12]?
Answer: 9.62 µM

Question: What about the TGI [12] of the same compound?
Answer: > 25 µM

Question: And the GI50 [13]?
Answer: > 19.5 µM

Question: And the TGI [13]?
Answer: > 25 µM

Question: What about the GI50 [14] of the same compound?
Answer: > 16.8 µM

Question: What about the TGI [14] of the same compound?
Answer: > 25 µM

Question: And the GI50 [15]?
Answer: > 25 µM

Question: What about the TGI [15] of the same compound?
Answer: > 25 µM

Question: And the GI50 [16]?
Answer: > 25 µM

Question: And the TGI [16]?
Answer: > 25 µM

Question: What about the GI50 [17] of the same compound?
Answer: > 25 µM

Question: And the TGI [17]?
Answer: > 25 µM

Question: And the GI50 [18]?
Answer: > 25 µM

Question: What about the TGI [18] of the same compound?
Answer: > 25 µM

Question: And the GI50 [19]?
Answer: > 25 µM

Question: What about the TGI [19] of the same compound?
Answer: > 25 µM

Question: What about the GI50 [20] of the same compound?
Answer: > 25 µM

Question: What about the TGI [20] of the same compound?
Answer: > 25 µM

Question: What about the GI50 [21] of the same compound?
Answer: 2.25 µM

Question: What about the TGI [21] of the same compound?
Answer: > 19.1 µM

Question: And the GI50 [22]?
Answer: > 25 µM

Question: And the TGI [22]?
Answer: > 25 µM

Question: What about the GI50 [23] of the same compound?
Answer: > 20.7 µM

Question: What about the TGI [23] of the same compound?
Answer: > 25 µM

Question: What about the GI50 [24] of the same compound?
Answer: > 25 µM

Question: And the TGI [24]?
Answer: > 25 µM

Question: What about the GI50 [25] of the same compound?
Answer: > 12.5 µM

Question: And the TGI [25]?
Answer: > 25 µM

Question: What about the GI50 [26] of the same compound?
Answer: > 25 µM

Question: And the TGI [26]?
Answer: > 25 µM

Question: What about the GI50 [27] of the same compound?
Answer: > 25 µM

Question: And the TGI [27]?
Answer: > 25 µM

Question: What about the GI50 [28] of the same compound?
Answer: 18.1 µM

Question: What about the TGI [28] of the same compound?
Answer: > 25 µM

Question: What about the GI50 [29] of the same compound?
Answer: 3.22 µM

Question: And the TGI [29]?
Answer: > 25 µM
